# Experimental data: publication PMC5477036, “Design and synthesis of biphenyl and biphenyl ether inhibitors of sulfatases” (Chemical Science, 2016)
# Assays:
# Type in all cases: biochemical
# aryl sulfatase A (ARSA) = target: T1, aryl sulfatase A (ARSA) (Homo sapiens, UniProt P15289); test: ARSA inhibition assay with 4-MUS substrate; conditions: for inhibition at 1000 µM: 1 mM compound, 4-MUS substrate, means of two or more determinations, read-out: ARSA% inh @ 1 mM
# T1 construct: purchased R & D Systems
# T1 sequence (P15289 19-507): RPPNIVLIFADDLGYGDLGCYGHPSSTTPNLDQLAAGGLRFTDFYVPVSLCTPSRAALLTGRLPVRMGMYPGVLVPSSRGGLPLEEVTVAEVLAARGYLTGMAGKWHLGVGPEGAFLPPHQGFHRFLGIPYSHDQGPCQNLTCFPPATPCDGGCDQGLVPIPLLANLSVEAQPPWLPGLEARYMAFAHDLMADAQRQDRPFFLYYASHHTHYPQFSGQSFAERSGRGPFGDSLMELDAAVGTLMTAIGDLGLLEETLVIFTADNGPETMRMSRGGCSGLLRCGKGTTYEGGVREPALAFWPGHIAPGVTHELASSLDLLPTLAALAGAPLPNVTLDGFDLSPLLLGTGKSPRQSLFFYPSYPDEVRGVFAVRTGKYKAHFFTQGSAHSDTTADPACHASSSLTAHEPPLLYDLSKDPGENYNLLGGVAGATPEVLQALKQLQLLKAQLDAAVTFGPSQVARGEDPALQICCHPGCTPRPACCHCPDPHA
# Method: (§1) Compounds were assayed for their ability to inhibit the Sulf-2-catalysed desulfation of 4-methylumbelliferyl sulfate (4-MUS) to the fluorescent 4-methylumbelliferone (MU). To determine their sulfatase selectivity, inhibition of aryl sulfatases A (ARSA) and B (ARSB) was also assessed. To date no suitable benchmark inhibitors of these sulfatase have been reported. […] In the majority of cases the presence of a substituent on the B-ring was detrimental to Sulf-2 inhibition when compared with unsubstituted biphenyl sulfamate 76. Aminosulfates 54 and 62 and carboxylic acid 15 retained potency. […] Compounds 8, 10, 15, 50 and 51 were also relatively potent ARSA inhibitors. […] Aminosulfates 56 and 63 were the best Sulf-2 inhibitors lacking a trichloroethylsulfamate group.
# (§2) 1 – Biological assay protocols […]
# (§3) Omega data analysis software.
# (§4) ARSA and ARSB assay protocols
# (§5) Compounds were screened in a 96-well black plate (Sterilin) using 4-MUS as a substrate, using 50 μL reaction mixture containing 40 ng of the commercially available enzymes (ARSA or ARSB from R & D Systems), 50 mM HEPES (pH = 4.5), 10 mM CaCl2, 1 mM test compound (dissolved in DMSO; final concentration of DMSO in reaction = 2%), and H2O (45 μL). The assay mixture was incubated for 1 h at 37 °C, followed by addition of 5 μL of 4-MUS (Km = 1.6 mM for ARSA and 612 μM for ARSB), and incubation for a further 1 h at 37 °C. The reaction was stopped with 100 μL of 1 M Tris (pH = 10.5) and read at 460 nm following excitation at 355 nm in FLUOstar Omega plate reader (BMG Labtech) using Omega data analysis software.
# Sulf-2 = target: T2, Sulf-2 (Homo sapiens, UniProt Q8IWU5); test: Inhibition of Sulf-2-catalysed desulfation of 4-MUS to fluorescent MU; conditions: for inhibition at 1000 µM: 1 mM compound, 4-MUS substrate, means of two or more determinations, read-out: Sulf-2% inh @ 1 mM; for IC50: non-linear regression, 7 inhibitor concentrations in duplicate, mean ± SEM
# T2 construct: host or cells: 293T cells, transiently transfected
# T2 sequence (Q8IWU5 25-870): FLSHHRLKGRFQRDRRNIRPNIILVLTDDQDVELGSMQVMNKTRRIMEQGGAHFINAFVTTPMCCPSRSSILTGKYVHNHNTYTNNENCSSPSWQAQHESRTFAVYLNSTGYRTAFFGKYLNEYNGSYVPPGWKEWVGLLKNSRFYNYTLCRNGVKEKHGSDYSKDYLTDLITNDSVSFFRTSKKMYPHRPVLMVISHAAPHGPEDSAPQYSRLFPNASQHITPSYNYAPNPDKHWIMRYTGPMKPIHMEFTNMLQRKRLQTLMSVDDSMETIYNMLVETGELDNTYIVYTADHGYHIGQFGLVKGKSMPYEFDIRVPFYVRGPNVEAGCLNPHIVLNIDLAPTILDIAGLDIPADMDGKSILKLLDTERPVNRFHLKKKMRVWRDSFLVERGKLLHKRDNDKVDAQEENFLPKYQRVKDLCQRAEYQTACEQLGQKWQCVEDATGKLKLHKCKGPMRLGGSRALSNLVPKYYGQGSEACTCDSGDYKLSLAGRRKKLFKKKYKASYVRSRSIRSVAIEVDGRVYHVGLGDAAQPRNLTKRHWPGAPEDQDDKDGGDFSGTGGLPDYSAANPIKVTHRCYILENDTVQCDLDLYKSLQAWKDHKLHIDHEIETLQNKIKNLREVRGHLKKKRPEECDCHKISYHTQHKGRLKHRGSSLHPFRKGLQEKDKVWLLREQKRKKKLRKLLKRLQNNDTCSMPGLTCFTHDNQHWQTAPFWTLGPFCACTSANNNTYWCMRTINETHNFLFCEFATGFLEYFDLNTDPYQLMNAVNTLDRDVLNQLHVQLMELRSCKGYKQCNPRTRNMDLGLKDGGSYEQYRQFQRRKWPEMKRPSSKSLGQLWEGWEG
# Method: as §1
# 1 – Biological assay protocols
# Compounds were screened using 4-MUS as a substrate for Sulf-2 according to a protocol described by Morimoto-Tomita et al.1 Briefly 293T cells were transiently transfected with pcDNA3.1/Myc-His(-)-HSulf-2 DNA (Addgene) and TransIT-LT1 Transfection Reagent (Mirus) using a transfection mixture at the ratio 1:3 (µg DNA:
# µL transfection reagent) in Opti-MEM I reduced serum medium (Gibco). Conditioned medium containing Sulf-2 was collected after 3 days and bound to HIS-Select Nickel affinity gel (Sigma) overnight at 4 °C. Beads were washed three times with washing buffer containing 50 mM HEPES (pH 7.5), 300 mM NaCl, 0.05% Tween 20, followed by washing once with washing buffer containing no tween. Beads were suspended in 50 mM Hepes (pH 7.5) and used in inhibition assays. 20 μL of bead slurry was incubated with 1 mM compound (in DMSO) plus 10X reaction buffer (500 mM HEPES pH 7.5, 100 mM CaCl2) for 1 h at 37 °C. The reaction was started by the addition of 20 μL of 20 mM 4-MUS (final concentration of 8 mM) and incubated at 37 °C for 1 h. The reaction was stopped with 100 μL 1 M Tris buffer (pH 10.4) and read at 460 nm following excitation at 355 nm in FLUOstar Omega plate reader (BMG Labtech) using Omega data analysis software. […]
# aryl sulfatase B (ARSB) = target: T3, aryl sulfatase B (ARSB) (Homo sapiens, UniProt P15848); test: ARSB inhibition assay with 4-MUS substrate; conditions: for inhibition at 1000 µM: 1 mM compound, 4-MUS substrate, means of two or more determinations, read-out: ARSB% inh @ 1 mM; for IC50: non-linear regression, 7 inhibitor concentrations in duplicate, mean ± SEM
# T3 construct: purchased R & D Systems
# T3 sequence (P15848 37-533, species assumed): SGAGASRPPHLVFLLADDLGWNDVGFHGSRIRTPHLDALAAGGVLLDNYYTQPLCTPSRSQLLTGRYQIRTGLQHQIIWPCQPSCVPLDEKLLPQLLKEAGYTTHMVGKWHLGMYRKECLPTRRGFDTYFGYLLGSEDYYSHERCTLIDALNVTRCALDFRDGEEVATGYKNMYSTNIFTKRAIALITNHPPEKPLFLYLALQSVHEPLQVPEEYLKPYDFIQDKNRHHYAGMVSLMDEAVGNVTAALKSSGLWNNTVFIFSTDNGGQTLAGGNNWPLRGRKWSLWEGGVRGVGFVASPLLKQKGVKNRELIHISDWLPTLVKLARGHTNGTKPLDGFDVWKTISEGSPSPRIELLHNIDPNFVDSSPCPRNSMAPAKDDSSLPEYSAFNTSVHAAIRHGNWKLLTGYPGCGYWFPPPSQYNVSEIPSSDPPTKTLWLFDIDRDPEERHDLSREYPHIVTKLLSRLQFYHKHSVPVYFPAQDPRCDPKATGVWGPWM
# Method: as §1, §2, §3, §4, §5
# [1] = non-linear regression, 7 inhibitor concentrations in duplicate, mean ± SEM
SMILES,inhibition at 1000 µM (aryl sulfatase A (ARSA)),inhibition at 1000 µM (Sulf-2),inhibition at 1000 µM (aryl sulfatase B (ARSB)),IC50 (aryl sulfatase A (ARSA); [1]),IC50 (Sulf-2),IC50 (aryl sulfatase B (ARSB)),ARSA IC50 (aryl sulfatase A (ARSA); [1]),"ARSA inhibition over concentration range (aryl sulfatase A (ARSA); concentration range 0.025–1 mM, IC50 could not be determined)"
NS(=O)(=O)Oc1cccc(Oc2cccc(NS(=O)(=O)OCC(Cl)(Cl)Cl)c2)c1 [Compound 52],100%,100%,96%,–,–,–,–,–
NS(=O)(=O)Oc1cccc(Oc2ccc(NS(=O)(=O)OCC(Cl)(Cl)Cl)cc2)c1 [Compound 53],96%,98%,86%,108 ± 2 µM,390 ± 11 µM,116 ± 10 µM,–,–
NS(=O)(=O)Oc1cccc(-c2cccc(NS(=O)(=O)O)c2)c1 [Compound 54],0%,31%,0%,–,–,–,–,–
NS(=O)(=O)Oc1cccc(-c2ccc(NS(=O)(=O)O)cc2)c1 [Compound 55],0%,4%,0%,–,–,–,–,–
NS(=O)(=O)Oc1cccc(Oc2cccc(NS(=O)(=O)O)c2)c1 [Compound 56],95%,58%,85%,–,–,–,–,–
NS(=O)(=O)Oc1cccc(Oc2ccc(NS(=O)(=O)O)cc2)c1 [Compound 57],34%,13%,77%,–,–,–,–,–
NS(=O)(=O)Oc1cccc(-c2ccccc2N(S(=O)(=O)OCC(Cl)(Cl)Cl)S(=O)(=O)OCC(Cl)(Cl)Cl)c1 [Compound 60],63%,10%,0%,–,–,–,–,–
NS(=O)(=O)Oc1cccc(Oc2ccccc2N(S(=O)(=O)OCC(Cl)(Cl)Cl)S(=O)(=O)OCC(Cl)(Cl)Cl)c1 [Compound 61],82%,18%,40%,–,–,–,–,–

# The next lines start with results.
inhibition at 1000 µM (aryl sulfatase A (ARSA)),inhibition at 1000 µM (Sulf-2),inhibition at 1000 µM (aryl sulfatase B (ARSB)),IC50 (aryl sulfatase A (ARSA); [1]),IC50 (Sulf-2),IC50 (aryl sulfatase B (ARSB)),ARSA IC50 (aryl sulfatase A (ARSA); [1]),SMILES,"ARSA inhibition over concentration range (aryl sulfatase A (ARSA); concentration range 0.025–1 mM, IC50 could not be determined)"
26%,37%,0%,–,–,–,–,NS(=O)(=O)Oc1cccc(-c2ccccc2NS(=O)(=O)O)c1 [Compound 62],–
54%,56%,93%,–,–,–,–,NS(=O)(=O)Oc1cccc(Oc2ccccc2NS(=O)(=O)O)c1 [Compound 63],–
44%,10%,0%,–,–,–,–,NS(=O)(=O)Oc1cccc(Oc2ccccc2C(=O)O)c1 [Compound 73],–
49%,30%,0%,–,–,–,–,NS(=O)(=O)Oc1cccc(Oc2cccc(C(=O)O)c2)c1 [Compound 74],–
33%,23%,0%,–,–,–,–,NS(=O)(=O)Oc1cccc(Oc2ccc(C(=O)O)cc2)c1 [Compound 75],–
14%,38%,65%,–,–,–,–,NS(=O)(=O)Oc1cccc(-c2ccccc2)c1 [Compound 76],–
–,0%,–,–,–,–,–,CN(C)S(=O)(=O)Oc1cccc(-c2ccccc2)c1 [Compound 77],–
–,32%,–,–,–,–,–,NS(=O)(=O)Oc1cccc(Oc2ccccc2)c1 [Compound 78],–
0%,100%,61%,–,254 ± 3 µM,30 ± 11 µM,No inhibition,O=S(=O)(Nc1cccc(-c2ccccc2)c1)OCC(Cl)(Cl)Cl [Compound 79],–
74%,99%,99%,–,298 ± 3 µM,34 ± 9 µM,–,O=S(=O)(Nc1cccc(Oc2ccccc2)c1)OCC(Cl)(Cl)Cl [Compound 80],Concentration-dependent inhibition was not observed
70%,1%,85%,–,–,–,–,O=S(=O)(OCC(Cl)(Cl)Cl)Oc1cccc(-c2ccccc2)c1 [Compound 81],–
